Each structure is given as a SMILES string. Structures can show the parent of a compound that is named as a salt.

By IC50 is commonly meant the concentration needed to halve the response being measured.

This experiment can be described thus: Test 4: Inhibition of Cellular Release of Amyloid Peptide 1-40. Particulars: Cricetulus griseus, CHO, 24 h; read-out: Amyloid-β1-40 release IC50. The experiment is classed as cell-based, Chinese hamster. On the procedure:
Chinese hamster ovary cells are transfected with the human gene for amyloid precursor protein. The cells are plated at a density of 8000 cells/well into 96-well microtiter plates and cultivated for 24 hours in DMEM cell culture medium containing 10% FCS. The test compound is added to the cells at various concentrations, and the cells are cultivated for 24 hours in the presence of the test compound.
For the compound `CC1(c2cccc(NC(=O)c3ccc(Br)cn3)n2)COCC(N)=N1` (racemic) [Example 2, 5-Bromo-pyridine-2-carboxylic acid [6-(5-amino-3-methyl-3,6-dihydro-2H-[1,4]-oxazin-3-yl)-pyridin-2-yl]-amide], the IC50 worked out at 58 nM.

Consider `C[C@@]1(c2cccc(NC(=O)c3ccc(Br)cn3)n2)COCC(N)=N1` [Example 1, 5-Bromo-pyridine-2-carboxylic acid [6-((R)-5-amino-3-methyl-3,6-dihydro-2H-[1,4]-oxazin-3-yl)-pyridin-2-yl]-amide], for which the IC50 is 41 nM.

As for `[2H]c1nc(C(=O)Nc2cccc(C3(CF)COCC(N)=N3)n2)c(C([2H])([2H])[2H])c([2H])c1Cl` (centres unmarked) [Example 6, 5-{6-[(4,6-Dideutero-5-chloro-3-trideuteromethyl-pyridine-2-carbonyl)-amino]-pyridin-2-yl}-5-fluoromethyl-5,6-dihydro-2H-[1,4]oxazin-3-yl-ammonium trifluoro acetate], the IC50 stood at 63 nM.

Take `Cc1cc(C#N)cnc1C(=O)Nc1cccc([C@]2(C)CO[C@@](C)(C(F)(F)F)C(N)=N2)n1` [Example 8, 5-Cyano-3-methyl-pyridine-2-carboxylic acid [6-((3R,6R)-5-amino-3,6-dimethyl-6-trifluoro-methyl-3,6-dihydro-2H-[1,4]oxazin-3-yl)-pyridin-2-yl]-amide]: the IC50 was found to be 6 nM.

As for `C[C@]1(c2cccc(NC(=O)c3ccc(C#N)cn3)n2)CO[C@@](C)(C(F)(F)F)C(N)=N1` [Example 9, 5-Cyano-pyridine-2-carboxylic acid [6-((3S,6R)-5-amino-3,6-dimethyl-6-trifluoromethyl-3,6-dihydro-2H-[1,4]oxazin-3-yl)-pyridin-2-yl]-amide], the IC50 amounted to 1900 nM.

Turning to `C[C@@]1(c2cccc(NC(=O)c3ccc(C#N)cn3)n2)CO[C@@](C)(C(F)(F)F)C(N)=N1` [Example 10, 5-Cyano-pyridine-2-carboxylic acid [6-((3R,6R)-5-amino-3,6-dimethyl-6-trifluoromethyl-3,6-dihydro-2H-[1,4]oxazin-3-yl)-pyridin-2-yl]-amide], the half-inhibitory concentration (IC50) was found to be 17 nM.

As for `Cc1cc(C#N)cnc1C(=O)Nc1ccc(F)c([C@]2(C)CO[C@@](C)(C(F)(F)F)C(N)=N2)n1` [Example 11, 5-Cyano-3-methyl-pyridine-2-carboxylic acid [6-((3R,6R)-5-amino-3,6-dimethyl-6-trifluoromethyl-3,6-dihydro-2H-[1,4]oxazin-3-yl)-5-fluoro-pyridin-2-yl]-amide], the IC50 was 2 nM.

With `Cc1cc(C#N)cnc1C(=O)Nc1ccc(F)c([C@@]2(C)CO[C@@](C)(C(F)(F)F)C(N)=N2)n1` [Example 12, 5-Cyano-3-methyl-pyridine-2-carboxylic acid [6-((3S,6R)-5-amino-3,6-dimethyl-6-trifluoromethyl-3,6-dihydro-2H-[1,4]oxazin-3-yl)-5-fluoro-pyridin-2-yl]-amide], the IC50 stood at 280 nM.

Take `[2H]c1nc(C(=O)Nc2cc(C3(CF)COCC(N)=N3)ccn2)c(C([2H])([2H])[2H])c([2H])c1Cl` (centres unmarked) [Example 13, 5-{2-[(5-Chloro-4,6-dideutero-3-trideuteromethyl-pyridine-2-carbonyl)-amino]-pyridin-4-yl}-5-fluoromethyl-5,6-dihydro-2H-[1,4]oxazin-3-yl-ammonium acetate]: the IC50 was found to be 550 nM.

Take `Cc1cc(C#N)cnc1C(=O)Nc1cc([C@@]2(C)CO[C@@](C)(C(F)(F)F)C(N)=N2)c(F)cn1` [Example 17, 5-Cyano-3-methyl-pyridine-2-carboxylic acid [4-((3S,6R)-5-amino-3,6-dimethyl-6-trifluoromethyl-3,6-dihydro-2H-[1,4]oxazin-3-yl)-5-fluoro-pyridin-2-yl]-amide]: the IC50 came out at 4800 nM.

On to `NC1=NC(CF)(c2cc(NC(=O)c3ccc(Br)cn3)cnc2Cl)COC1` (centres unmarked) [Example 18, 5-Bromo-pyridine-2-carboxylic acid [5-(5-amino-3-fluoromethyl-3,6-dihydro-2H-[1,4]oxazin-3-yl)-6-chloro-pyridin-3-yl]-amide hydrochloride], for which the IC50 came to 15 nM.

For the compound `C[C@@]1(c2cccc(NC(=O)c3ncc(C#N)cc3N)n2)CO[C@@](C)(C(F)(F)F)C(N)=N1` [Example 19, 3-Amino-5-cyano-pyridine-2-carboxylic acid [6-((3R,6R)-5-amino-3,6-dimethyl-6-trifluoromethyl-3,6-dihydro-2H-[1,4]oxazin-3-yl)-pyridin-2-yl]-amide], the IC50 was determined as 48 nM.

Consider `C[C@@]1(c2cccc(NC(=O)c3ncc(C#N)cc3Cl)n2)CO[C@@](C)(C(F)(F)F)C(N)=N1` [Example 20, 3-Chloro-5-cyano-pyridine-2-carboxylic acid [6-((3R,6R)-5-amino-3,6-dimethyl-6-trifluoromethyl-3,6-dihydro-2H-[1,4]oxazin-3-yl)-pyridin-2-yl]-amide], for which the IC50 came to 5 nM.

Turning to `[2H]c1nc(C(=O)Nc2cccc([C@]3(C)CO[C@@](C)(C(F)(F)F)C(N)=N3)n2)c(C([2H])([2H])[2H])c([2H])c1Cl` [Example 21, 5-Chloro-4,6-dideuterio-3-trideuteriomethyl-pyridine-2-carboxylic acid [6-((3R,6R)-5-amino-3,6-dimethyl-6-trifluoromethyl-3,6-dihydro-2H-[1,4]oxazin-3-yl)-pyridin-2-yl]-amide], the IC50 was found to be 110 nM.

For the compound `C[C@@]1(c2cccc(NC(=O)c3ncc(Br)cc3Cl)n2)CO[C@@](C)(C(F)(F)F)C(N)=N1` [Example 22, 5-Bromo-3-chloro-pyridine-2-carboxylic acid [6-((3R,6R)-5-amino-3,6-dimethyl-6-trifluoromethyl-3,6-dihydro-2H-[1,4]oxazin-3-yl)-pyridin-2-yl]-amide], the IC50 came out at 29 nM.

Regarding `COc1cnc(C(=O)Nc2ccc(F)c([C@]3(C)CO[C@@](C)(C(F)(F)F)C(N)=N3)n2)c(C)c1` [Example 25, 5-Methoxy-3-methyl-pyridine-2-carboxylic acid [6-((3R,6R)-5-amino-3,6-dimethyl-6-trifluoromethyl-3,6-dihydro-2H-[1,4]oxazin-3-yl)-5-fluoro-pyridin-2-yl]amide], the IC50 turned out to be 76 nM.

For the compound `Cc1cc(OC(F)F)cnc1C(=O)Nc1ccc(F)c([C@]2(C)CO[C@@](C)(C(F)(F)F)C(N)=N2)n1` [Example 29, 5-Difluoromethoxy-3-methyl-pyridine-2-carboxylic acid [6-((3R,6R)-5-amino-3,6-dimethyl-6-trifluoromethyl-3,6-dihydro-2H-[1,4]oxazin-3-yl)-5-fluoro-pyridin-2-yl]amide], the IC50 amounted to 24 nM.

As for `Cc1cc(OCF)cnc1C(=O)Nc1ccc(F)c([C@]2(C)CO[C@@](C)(C(F)(F)F)C(N)=N2)n1` [Example 32, 5-Fluoromethoxy-3-methyl-pyridine-2-carboxylic acid [6-((3R,6R)-5-amino-3,6-dimethyl-6-trifluoromethyl-3,6-dihydro-2H-[1,4]oxazin-3-yl)-5-fluoro-pyridin-2-yl]amide], the IC50 was 26 nM.

`Cc1cnc(C(=O)Nc2ccc(F)c([C@]3(C)CO[C@@](C)(C(F)(F)F)C(N)=N3)n2)cn1` [Example 33, 5-Methyl-pyrazine-2-carboxylic acid [6-((3R,6R)-5-amino-3,6-dimethyl-6-trifluoromethyl-3,6-dihydro-2H-[1,4]oxazin-3-yl)-5-fluoro-pyridin-2-yl]amide]: the IC50 came to 130 nM.

As for `C[C@@]1(c2cc(NC(=O)c3ncc(C#N)cc3Cl)ncc2F)CO[C@@](C)(C(F)(F)F)C(N)=N1` [Example 35, 3-Chloro-5-cyano-pyridine-2-carboxylic acid [4-((3R,6R)-5-amino-3,6-dimethyl-6-trifluoromethyl-3,6-dihydro-2H-[1,4]oxazin-3-yl)-5-fluoro-pyridin-2-yl]-amide], the IC50 was found to be 140 nM.

Consider `C[C@@]1(c2cc(NC(=O)c3ncc(OC(F)F)cc3Cl)ncc2F)CO[C@@](C)(C(F)(F)F)C(N)=N1` [Example 36, 3-Chloro-5-difluoromethoxy-pyridine-2-carboxylic acid [4-((3R,6R)-5-amino-3,6-dimethyl-6-trifluoromethyl-3,6-dihydro-2H-[1,4]oxazin-3-yl)-5-fluoro-pyridin-2-yl]-amide], for which the IC50 was 410 nM.

With `Cc1cc(C#N)cnc1C(=O)Nc1cc([C@]2(C)COC(CF)(CF)C(N)=N2)c(F)cn1` [Example 37, 5-Cyano-3-methyl-pyridine-2-carboxylic acid [4-((R)-5-amino-6,6-bis-fluoromethyl-3-methyl-3,6-dihydro-2H-[1,4]oxazin-3-yl)-5-fluoro-pyridin-2-yl]-amide], the IC50 came to 83 nM.

For the compound `Cc1cc(C#N)cnc1C(=O)Nc1ccc(F)c([C@]2(C(F)F)COCC(N)=N2)n1` [Example 38, 5-Cyano-3-methyl-pyridine-2-carboxylic acid [6-((R)-5-amino-3-difluoromethyl-3,6-dihydro-2H-[1,4]oxazin-3-yl)-5-fluoro-pyridin-2-yl]-amide], the IC50 amounted to 5 nM.

In the case of `Cc1cc(C#N)cnc1C(=O)Nc1ccc(F)c([C@@]2(C(F)F)COCC(N)=N2)n1` [Example 39, 5-Cyano-3-methyl-pyridine-2-carboxylic acid [6-((S)-5-amino-3-difluoromethyl-3,6-dihydro-2H-[1,4]oxazin-3-yl)-5-fluoro-pyridin-2-yl]-amide], the IC50 is 290 nM.

Regarding `N#Cc1cnc(C(=O)Nc2ccc(F)c([C@]3(C(F)F)COCC(N)=N3)n2)c(Cl)c1` [Example 40, 3-Chloro-5-cyano-pyridine-2-carboxylic acid [6-((R)-5-amino-3-difluoromethyl-3,6-dihydro-2H-[1,4]oxazin-3-yl)-5-fluoro-pyridin-2-yl]-amide], the IC50 amounted to 12 nM.

As to `Cc1cnc(C(=O)Nc2ccc(F)c([C@]3(C)CO[C@@](C)(C(F)(F)F)C(N)=N3)n2)c(C)n1` [Example 41, 3,5-Dimethyl-pyrazine-2-carboxylic acid [6-((3R,6R)-5-amino-3,6-dimethyl-6-trifluoromethyl-3,6-dihydro-2H-[1,4]oxazin-3-yl)-5-fluoro-pyridin-2-yl]amide], the IC50 was determined as 161 nM.

Values taken from patent US10035794B2, “Heterocyclic derivatives and their use in the treatment of neurological disorders” (NOVARTIS AG, priority 2011, dated 2018).
